In patent US20040029186A1, “Methods” (priority 2000, published 2004):

Molecular target: T1, α4β1 integrin (Homo sapiens, UniProt P05556+P13612)
T1 construct: endogenous in cells; host or cells: cells of heparinised human whole blood
Experiment: Human whole blood cell adhesion to VCAM-1 coated magnetic beads, in vitro
Format: cell-based
Conditions: 1 mM manganese chloride, 1 h room temperature, control samples without antibody
Method: Whole human or animal blood (e.g. rat, mouse, dog), was collected into sodium heparin (10 Units/ml blood).
487.5 μl aliquots of heparinised naive human or animal whole blood were dispensed into reaction tubes containing 7.5 μl biotinylated VCAM beads and either 5 μl of a solution of a compound believed to be an α4β1 integrin inhibitor or, as a control, 5 μl of the solvent used to dissolve the compound and either with or without 2 μl anti-α4 antibody. […]
After this time the wash procedure with chilled PBS was carried out three times before the addition of 130 μl per well of 2% Triton X-100 (Sigma T-9284) in distilled water to lyse the cells adhering to the beads. The beads were once again captured by the Dynal MPC® magnet, 100 μl aliquots of the solution from each well was transferred to a clean 96 well flat-bottomed plate and the fluorescence of each well measured using an Fmax fluorimeter (Molecular Devices, Crawley, West Sussex), excitation 485 nm, emission 538 nm. […]
The tubes were rotated on a windmill mixer for 2 h at 4° C. before addition of 500 μl ice cold PBS and placing on a Dynal MPC® magnet for 10 min to recover the beads. […] The fluorescence of each well was measured using a fluorimeter, excitation 485 nm, emission 538 nm. Results were expressed as a percentage of the fluorescence in control samples containing no antibody. […]

T1 sequence (P13612 34-1032): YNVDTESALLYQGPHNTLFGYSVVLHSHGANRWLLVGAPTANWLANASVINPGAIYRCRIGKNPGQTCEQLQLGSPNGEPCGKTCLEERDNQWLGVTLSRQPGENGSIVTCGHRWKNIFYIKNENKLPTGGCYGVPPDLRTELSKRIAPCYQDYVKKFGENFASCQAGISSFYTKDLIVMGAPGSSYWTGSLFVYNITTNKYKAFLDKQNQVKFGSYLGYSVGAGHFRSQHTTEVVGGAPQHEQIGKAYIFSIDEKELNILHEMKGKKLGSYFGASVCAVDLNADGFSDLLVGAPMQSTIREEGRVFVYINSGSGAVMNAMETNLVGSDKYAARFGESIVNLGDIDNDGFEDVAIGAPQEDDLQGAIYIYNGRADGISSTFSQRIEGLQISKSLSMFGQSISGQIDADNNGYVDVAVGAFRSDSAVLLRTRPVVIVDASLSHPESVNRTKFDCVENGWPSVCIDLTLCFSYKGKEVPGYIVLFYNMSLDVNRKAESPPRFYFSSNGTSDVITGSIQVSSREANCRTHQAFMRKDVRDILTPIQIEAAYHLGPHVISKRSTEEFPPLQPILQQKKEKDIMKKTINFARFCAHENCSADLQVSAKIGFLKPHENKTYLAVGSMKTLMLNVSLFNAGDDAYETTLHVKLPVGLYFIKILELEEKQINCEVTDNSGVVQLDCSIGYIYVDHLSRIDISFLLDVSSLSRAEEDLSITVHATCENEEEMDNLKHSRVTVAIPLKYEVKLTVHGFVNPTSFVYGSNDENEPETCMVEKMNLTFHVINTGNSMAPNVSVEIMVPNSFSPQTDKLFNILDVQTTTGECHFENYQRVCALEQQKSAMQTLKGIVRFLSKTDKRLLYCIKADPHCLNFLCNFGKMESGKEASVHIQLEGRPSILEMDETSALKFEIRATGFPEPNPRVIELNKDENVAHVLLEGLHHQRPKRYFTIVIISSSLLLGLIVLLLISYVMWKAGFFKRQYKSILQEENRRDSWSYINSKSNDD
T1 sequence (P05556 21-798): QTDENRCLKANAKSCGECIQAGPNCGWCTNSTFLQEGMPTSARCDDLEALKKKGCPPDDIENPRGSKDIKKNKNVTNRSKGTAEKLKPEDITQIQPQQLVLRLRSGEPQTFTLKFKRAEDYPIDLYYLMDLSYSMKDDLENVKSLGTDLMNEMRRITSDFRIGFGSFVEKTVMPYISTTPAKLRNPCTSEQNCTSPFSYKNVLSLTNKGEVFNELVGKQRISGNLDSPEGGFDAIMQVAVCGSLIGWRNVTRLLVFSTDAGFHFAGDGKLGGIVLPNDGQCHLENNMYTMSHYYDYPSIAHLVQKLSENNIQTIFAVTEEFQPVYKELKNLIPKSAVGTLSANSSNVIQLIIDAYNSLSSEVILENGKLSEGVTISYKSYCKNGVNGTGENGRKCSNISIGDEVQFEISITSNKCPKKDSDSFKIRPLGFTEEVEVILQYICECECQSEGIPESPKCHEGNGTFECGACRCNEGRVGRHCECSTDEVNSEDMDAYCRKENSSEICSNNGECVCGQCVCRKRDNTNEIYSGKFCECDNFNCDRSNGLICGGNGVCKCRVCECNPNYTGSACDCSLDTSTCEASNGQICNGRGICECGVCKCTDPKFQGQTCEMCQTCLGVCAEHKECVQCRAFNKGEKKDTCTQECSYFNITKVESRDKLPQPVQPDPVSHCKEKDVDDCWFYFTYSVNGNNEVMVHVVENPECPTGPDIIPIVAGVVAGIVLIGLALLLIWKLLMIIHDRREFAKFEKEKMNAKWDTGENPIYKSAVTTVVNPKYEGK

## Manganese chloride [Mn^2+]
  increase of whole blood cell adhesion to VCAM-1 coated beads: approximately 2 fold
